Key:
Laodelphax striatellus [1] = experiment: Ratio of LD50 for Laodelphax striatella Kumamoto (small brown planthopper) to LD50 for susceptible Laodelphax striatella; assay type: functional
[2] = target: Acetylcholinesterase (Laodelphax striatella) (UniProt K4JQ36); experiment: Ratio of I50 of acetylcholinesterase in Laodelphax striatella Ibaraki (small brown planthopper) homogenate to I50 for acetylcholinesterase in susceptible Laodelphax striatella homogenate; details: Laodelphax striatellus
Laodelphax striatellus [3] = experiment: Insecticidal activity against susceptible Laodelphax striatella (small brown planthopper) assessed as mortality compound treated topically on dorsal side; assay type: functional; details: topical
Acetylcholinesterase [4] = target: T1, Acetylcholinesterase (Laodelphax striatella, UniProt K4JQ36); experiment: Inhibition of acetylcholinesterase in Laodelphax striatella Ibaraki (small brown planthopper) homogenate preincubated for 10 min before substrate addition measured after 10 min by Ellman method; parameters: species or system Laodelphax striatellus; details: read-out: I50
Laodelphax striatellus [5] = experiment: Ratio of LD50 for Laodelphax striatella Ibaraki (small brown planthopper) to LD50 for susceptible Laodelphax striatella; assay type: functional
Laodelphax striatellus [6] = experiment: Insecticidal activity against Laodelphax striatella Ibaraki (small brown planthopper) assessed as mortality compound treated topically on dorsal side; details: topical
Acetylcholinesterase [7] = target: T1, Acetylcholinesterase; experiment: Inhibition of acetylcholinesterase in susceptible Laodelphax striatella (small brown planthopper) homogenate preincubated for 10 min before substrate addition measured after 10 min by Ellman method; parameters: species or system Laodelphax striatellus; details: read-out: I50
Laodelphax striatellus [8] = experiment: Insecticidal activity against Laodelphax striatella Kumamoto (small brown planthopper) assessed as mortality compound treated topically on dorsal side; details: topical
Acetylcholinesterase [9] = target: T1, Acetylcholinesterase; experiment: Inhibition of acetylcholinesterase in Laodelphax striatella Kumamoto (small brown planthopper) homogenate preincubated for 10 min before substrate addition measured after 10 min by Ellman method; parameters: species or system Laodelphax striatellus; details: read-out: I50
[10] = target: Acetylcholinesterase (Laodelphax striatella) (UniProt K4JQ36); experiment: Ratio of I50 of acetylcholinesterase in Laodelphax striatella Kumamoto (small brown planthopper) homogenate to I50 for acetylcholinesterase in susceptible Laodelphax striatella homogenate; details: Laodelphax striatellus
[11] = target: T2, Carboxylesterase (Laodelphax striatella) (UniProt K4JRP7); experiment: Ratio of activity of aliesterase in Laodelphax striatella Kumamoto (small brown planthopper) homogenate to activity of aliesterase in susceptible Laodelphax striatella homogenate; details: Laodelphax striatellus
T2 sequence (whole entry): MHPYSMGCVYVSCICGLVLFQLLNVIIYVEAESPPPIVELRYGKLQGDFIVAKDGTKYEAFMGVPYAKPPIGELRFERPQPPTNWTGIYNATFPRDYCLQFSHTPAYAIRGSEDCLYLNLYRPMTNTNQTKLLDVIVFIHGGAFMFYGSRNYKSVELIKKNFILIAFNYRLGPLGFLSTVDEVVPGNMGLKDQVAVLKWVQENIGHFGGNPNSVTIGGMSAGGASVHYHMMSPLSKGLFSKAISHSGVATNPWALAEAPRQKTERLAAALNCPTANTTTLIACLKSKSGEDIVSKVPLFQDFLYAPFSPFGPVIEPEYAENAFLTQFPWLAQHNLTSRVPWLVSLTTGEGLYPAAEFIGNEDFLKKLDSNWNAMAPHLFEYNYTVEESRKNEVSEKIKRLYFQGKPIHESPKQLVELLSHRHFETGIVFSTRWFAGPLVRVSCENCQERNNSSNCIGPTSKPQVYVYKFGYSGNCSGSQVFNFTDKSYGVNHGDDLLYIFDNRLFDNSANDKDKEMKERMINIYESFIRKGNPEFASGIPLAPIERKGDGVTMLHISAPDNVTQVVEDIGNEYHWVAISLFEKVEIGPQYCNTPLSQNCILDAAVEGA

[12] = target: T2, Carboxylesterase (Laodelphax striatella); experiment: Activity of aliesterase in Laodelphax striatella Ibaraki (small brown planthopper) homogenate assessed per 10 min per ug protein after 10 min by van Asperen method; details: Laodelphax striatellus
[13] = target: T2, Carboxylesterase (Laodelphax striatella); experiment: Ratio of activity of aliesterase in Laodelphax striatella Ibaraki (small brown planthopper) homogenate to activity of aliesterase in susceptible Laodelphax striatella homogenate; details: Laodelphax striatellus
[14] = target: T2, Carboxylesterase (Laodelphax striatella); experiment: Activity of aliesterase in susceptible Laodelphax striatella (small brown planthopper) homogenate assessed per 10 min per ug protein after 10 min by van Asperen method; details: Laodelphax striatellus
[15] = target: T2, Carboxylesterase (Laodelphax striatella); experiment: Activity of aliesterase in Laodelphax striatella Kumamoto (small brown planthopper) homogenate assessed per 10 min per ug protein after 10 min by van Asperen method; details: Laodelphax striatellus

T1 sequence (K4JQ36 whole entry): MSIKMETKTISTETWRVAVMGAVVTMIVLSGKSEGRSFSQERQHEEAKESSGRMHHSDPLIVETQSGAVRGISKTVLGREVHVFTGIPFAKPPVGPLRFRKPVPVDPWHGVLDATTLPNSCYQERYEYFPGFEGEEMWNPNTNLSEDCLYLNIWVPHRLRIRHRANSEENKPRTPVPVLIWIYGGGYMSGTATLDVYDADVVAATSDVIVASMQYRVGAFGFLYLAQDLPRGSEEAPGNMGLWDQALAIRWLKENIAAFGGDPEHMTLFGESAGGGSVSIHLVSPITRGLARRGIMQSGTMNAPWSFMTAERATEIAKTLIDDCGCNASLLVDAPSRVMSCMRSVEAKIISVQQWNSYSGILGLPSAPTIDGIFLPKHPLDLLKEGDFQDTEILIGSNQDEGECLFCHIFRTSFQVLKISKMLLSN
Chain of Acetylcholinesterase (Laodelphax striatella) (K4JQ36 1-426): as the sequence (K4JQ36 whole entry) above

| SMILES | Ratio (Laodelphax striatellus [1]) | LD50 (Laodelphax striatellus [3]) [mg/kg] | IC50 (Acetylcholinesterase [4]) [nM] | Ratio (Laodelphax striatellus [5]) | LD50 (Laodelphax striatellus [6]) [mg/kg] | IC50 (Acetylcholinesterase [7]) [nM] | LD50 (Laodelphax striatellus [8]) [mg/kg] | IC50 (Acetylcholinesterase [9]) [nM] | further results |
| --- | --- | --- | --- | --- | --- | --- | --- | --- | --- |
| CCC(C)c1ccccc1OC(=O)NC (centres undefined) [FENOBUCARB] | 18 | 18 | 26 | 1.8 | 33 | 29 | 320 | 140 | Ratio [2]: 0.9; Ratio [10]: 4.8 |
| CCOP(=S)(OCC)Oc1cc(C)nc(C(C)C)n1 [DIMPYLATE] | 8.7 | 8.5 |  | 3.3 | 28 |  | 74 |  |  |
| CNC(=O)Oc1cccc2ccccc12 [CARBARIL] |  |  | 48 |  |  | 48 |  | 310 |  |
| CCOP(=O)(OCC)Oc1cc(C)nc(C(C)C)n1 [DIAZOXON] |  |  | 190 |  |  | 170 |  | 400 | Ratio [2]: 1.1; Ratio [10]: 2.4 |
| CCCCN(CCCC)SN(C)C(=O)Oc1cccc2c1OC(C)(C)C2 [CARBOSULFAN] | 19 | 2.2 |  |  |  |  | 42 |  |  |
| CC(C)C(C(=O)OC(C#N)c1cccc(Oc2ccccc2)c1)c1ccc(Cl)cc1 (centres undefined) [FENVALERATE] |  | 1.4 |  | 1.4 | 1.9 |  |  |  |  |
| CCOC(=O)CC(SP(=S)(OC)OC)C(=O)OCC (centres undefined) [MALATHION] | 17 | 22 |  | 5.9 | 130 |  | 380 |  |  |
| CC(=O)Oc1cccc2ccccc12 |  |  |  |  |  |  |  |  | Ratio [11]: 4.3; Activity [12]: 27 nmol; Ratio [13]: 4.1; Activity [14]: 6.6 nmol; Activity [15]: 29 nmol |
| CNC(=O)Oc1cccc2c1OC(C)(C)C2 [CARBOFURAN] | 39 | 0.51 |  | 3.3 | 1.7 |  | 20 |  |  |
| COP(=O)(OC)Oc1ccc([N+](=O)[O-])c(C)c1 [FENITROXON] |  |  | 360 |  |  | 350 |  | 730 | Ratio [2]: 1; Ratio [10]: 2.1 |
| O=[N+]([O-])/N=C1\NCCN1Cc1ccc(Cl)nc1 [IMIDACLOPRID] | 2.3 | 0.26 |  | 1 | 0.26 |  | 0.61 |  |  |
| COP(=S)(OC)Oc1ccc([N+](=O)[O-])c(C)c1 [FENITROTHION] | 5.9 | 6.4 |  | 4.2 | 27 |  | 38 |  |  |
| CCOc1ccc(C(C)(C)COCc2cccc(Oc3ccccc3)c2)cc1 [ETOFENPROX] | 1.7 | 1.6 |  | 1.1 | 1.7 |  | 2.7 |  |  |

Source: ChEMBL document CHEMBL3044954, “Insecticide Resistance and Insensitive Acetylcholinesterase in Small Brown Planthopper, Laodelphax striatellus” (J Pestic Sci, 2000)
